These results are taken from patent US6969730B2, “Amines as histamine-3 receptor ligands and their therapeutic applications” (Abbott Laboratories, priority 2001, dated 2005).

Bounds are passed on as bounds.

The target in the assay is T1, histamine-3 receptors (H3 receptor) (Rattus norvegicus, UniProt Q9QYN8).
T1 construct: from tissue; host or cells: male Sprague-Dawley rat brain cortex membranes
T1 sequence (Q9QYN8 whole entry): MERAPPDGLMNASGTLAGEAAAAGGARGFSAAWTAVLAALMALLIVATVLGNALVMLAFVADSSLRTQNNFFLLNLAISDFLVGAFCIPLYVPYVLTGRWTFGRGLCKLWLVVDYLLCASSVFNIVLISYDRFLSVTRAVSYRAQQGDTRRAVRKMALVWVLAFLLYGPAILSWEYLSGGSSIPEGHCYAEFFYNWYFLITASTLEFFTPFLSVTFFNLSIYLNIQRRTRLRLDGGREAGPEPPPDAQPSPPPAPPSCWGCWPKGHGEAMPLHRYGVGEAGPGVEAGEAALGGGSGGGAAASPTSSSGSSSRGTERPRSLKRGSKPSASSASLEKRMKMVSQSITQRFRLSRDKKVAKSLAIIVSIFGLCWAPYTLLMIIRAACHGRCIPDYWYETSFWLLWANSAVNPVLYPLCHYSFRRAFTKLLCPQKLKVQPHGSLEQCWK
As to the kind of experiment: (3H)-N-α-methylhistamine binding to rat cortical membranes (histamine-3 receptor ligands). The conditions noted are these: male Sprague-Dawley rat brain cortical membranes; (3H)-N-α-methylhistamine ~0.6 nM; 30 minutes at 25° C.; Cheng-Prusoff. The procedure:
Briefly, male Sprague-Dawley rat brain cortices were homogenized (1 g tissue/10 mL buffer) in 50 mM Tris-HCl/5 mM EDTA containing protease inhibitor cocktail (Calbiochem) using a polytron set at 20,500 rpm. Homogenates were centrifuged for 20 minutes at 40,000×g. The supernatant was decanted, and pellets were weighed. The pellet was resuspended by polytron homogenization in 40 mL 50 mM Tris-HCl/5 mM EDTA with protease inhibitors and centrifuged for 20 minutes at 40,000×g. […] Rat cortical membranes (12 mg wet weight/tube) were incubated with (^3H)-N-α-methylhistamine (˜0.6 nM) with or without H3 receptor antagonists in a total incubation volume of 0.5 mL of 50 mM Tris-HCl/5 mM EDTA (pH 7.7). Test compounds were dissolved in DSMO to provide a 20 mM solution, serially diluted and then added to the incubation mixture prior to initiating the incubation assay by addition of the membranes. Thioperamide (3 μM) was used to determine nonspecific binding. Binding incubations were conducted for 30 minutes at 25° C. and terminated by addition of 2 mL of ice cold 50 mM Tris-HCl (pH 7.7) and filtration through 0.3% polyethylenimine-soaked Unifilter plates (Packard). These filters were washed 4 additional times with 2 mL of ice-cold 50 mM Tris-HCl and dried for 1 hour. Radioactivity was determined using liquid scintillation counting techniques. Results were analyzed by Hill transformation and Ki values were determined using the Cheng-Prusoff equation.
In the case of “3-{[3-(2-{2-[(2R)-2-methylpyrrolidin-1-yl]ethyl}-1-benzofuran-5-yl)-1,2,4-oxadiazol-5-yl]methyl}benzonitrile [Example 93]”, the inhibition constant Ki – broadly, a measure of affinity in units of concentration, obtained from inhibition or displacement – is 6 nM.

The compound “4-(2-{2-[-2,6-dimethylpiperidinyl]ethyl}-1-benzofuran-5-yl)benzonitrile [Example 11]” returned an inhibitory constant (Ki) of 19.3 nM.

The compound “4-(6-methyl-2-{2-[(2R)-2-methyl-1-pyrrolidinyl]ethyl}-1-benzofuran-5-yl)benzonitrile and 4-(4-methyl-2-{2-[(2R)-2-methyl-1-pyrrolidinyl]ethyl}-1-benzofuran-5-yl)benzonitrile [Example 108]” came in with a Ki of 8 nM.

The compound “4-[4-(2-{2-[-2,6-dimethylpiperidinyl]ethyl}-1-benzofuran-5-yl)benzoyl]morpholine [Example 29]” registered a Ki of 8.46 nM.

`N#Cc1ccc(-c2ccc3oc(CCN4CCCC4)cc3c2)cc1` [Example 2, 4-{2-[2-(1-pyrrolidinyl)ethyl]-1-benzofuran-5-yl}benzonitrile] came in with an inhibition constant (Ki) of 46.8 nM.

In the case of `N#Cc1ccc(-c2ccc3oc(CCN4CCCCC4)cc3c2)cc1` [Example 4, 4-{2-[2-(1-piperidinyl)ethyl]-1-benzofuran-5-yl}benzonitrile], the inhibition constant Ki came to 58.8 nM.

`CC1CCCCN1CCc1cc2cc(-c3ccc(C#N)cc3)ccc2o1` (centres unmarked) [Example 6, 4-{2-[2-(2-methyl-1-piperidinyl)ethyl]-1-benzofuran-5-yl}benzonitrile] registered a Ki of 44.9 nM.

On to `COC(=O)[C@@H]1CCCN1CCc1cc2cc(-c3ccc(C#N)cc3)ccc2o1` [Example 15, 4-(2-{2-[2-pyrrolidinemethyl carboxylate]ethyl}-1-benzofuran-5-yl)benzonitrile], for which the Ki was at least 1000 nM.

`O=C(c1ccc(-c2ccc3oc(CCN4CCC[C@H]4CO)cc3c2)cc1)N1CCOCC1` [Example 34] had a Ki of 6.89 nM.

`C[C@@H]1CCC[C@H](C)N1CCc1cc2cc(-c3ccc(C(=O)N4CCOCC4)cn3)ccc2o1` [Example 50, 4-{[6-(2-{2-[-2,6-dimethylpiperidinyl]ethyl}-1-benzofuran-5-yl)-3-pyridinyl]carbonyl}morpholine] gave an inhibition constant (Ki) of 37.1 nM.

`O=C(c1ccc(-c2ccc3oc(CCN4CCC5(CC4)OCCO5)cc3c2)nc1)N1CCOCC1` [Example 60, 8-(2-{5-[5-(4-morpholinylcarbonyl)-2-pyridinyl]-1-benzofuran-2-yl}ethyl)-1,4-dioxa-8-azaspiro[4.5]decane] registered a Ki of at least 1000 nM.

`C=CCNCCc1cc2cc(-c3ccc(C(=O)N4CCOCC4)cn3)ccc2o1` [Example 63, N-allyl-N-(2-{5-[5-(4-morpholinylcarbonyl)-2-pyridinyl]-1-benzofuran-2-yl}ethyl)amine] showed an inhibition constant (Ki) of at least 1000 nM.

For `O=C(c1ccc(-c2ccc3oc(CCNCCCO)cc3c2)nc1)N1CCOCC1` [Example 64, 3-[(2-{5-[5-(4-morpholinylcarbonyl)-2-pyridinyl]-1-benzofuran-2-yl}ethyl)amino]-1-propanol], the Ki is at least 1000 nM.

As for `C[C@@H]1CCCN1CCc1cc2c(-c3ccc(C#N)cc3)cccc2o1` [Example 85, 4-(2-{2-[(2R)-2-methyl-1-pyrrolidinyl]ethyl}-1-benzofuran-4-yl)benzonitrile], the Ki stood at 42 nM.

`C[C@@H]1CCCN1CCc1cc2ccc(-c3ccc(C#N)cc3)cc2o1` [Example 86, 4-(2-{2-[(2R)-2-methyl-1-pyrrolidinyl]ethyl}-1-benzofuran-6-yl)benzonitrile] displayed a Ki of 3.5 nM.

The compound `C[C@@H]1CCCN1CCc1cc2cc(-c3noc(Cc4cccs4)n3)ccc2o1` [Example 87, 3-(2-{2-[(2R)-2-methylpyrrolidin-1-yl]ethyl}-1-benzofuran-5-yl)-5-(thien-2-ylmethyl)-1,2,4-oxadiazole] registered a Ki of 16 nM.

In turn, `C[C@@H]1CCCN1CCc1cc2cc(-c3noc(-c4ccc(C#N)cc4)n3)ccc2o1` [Example 88, 4-[3-(2-{2-[(2R)-2-methylpyrrolidin-1-yl]ethyl}-1-benzofuran-5-yl)-1,2,4-oxadiazol-5-yl]benzonitrile] had a Ki of 64 nM.

Compound `C[C@@H]1CCCN1CCc1cc2cc(-c3noc(-c4ccc(Cl)cc4)n3)ccc2o1` [Example 89, 5-(4-chlorophenyl)-3-(2-{2-[(2R)-2-methylpyrrolidin-1-yl]ethyl}-1-benzofuran-5-yl)-1,2,4-oxadiazole] displayed an inhibitory constant (Ki) of 12 nM.

`C[C@@H]1CCCN1CCc1cc2cc(-c3noc(-c4ccccc4Cl)n3)ccc2o1` [Example 90, 5-(2-chlorophenyl)-3-(2-{2-[(2R)-2-methylpyrrolidin-1-yl]ethyl}-1-benzofuran-5-yl)-1,2,4-oxadiazole] showed a Ki of 21 nM.

`C[C@@H]1CCCN1CCc1cc2cc(-c3noc(Cc4ccc(F)cc4)n3)ccc2o1` [Example 91, 5-(4-fluorobenzyl)-3-(2-{2-[(2R)-2-methylpyrrolidin-1-yl]ethyl}-1-benzofuran-5-yl)-1,2,4-oxadiazole] came in with a Ki of 10 nM.

`COc1ccc(Cc2nc(-c3ccc4oc(CCN5CCC[C@H]5C)cc4c3)no2)cc1` [Example 92, 5-(4-methoxybenzyl)-3-(2-{2-[(2R)-2-methylpyrrolidin-1-yl]ethyl}-1-benzofuran-5-yl)-1,2,4-oxadiazole] gave a Ki of 15 nM.

On to `C[C@@H]1CCCN1CCc1cc2cc(-c3noc(-c4ccccc4)n3)ccc2o1` [Example 94, 3-(2-{2-[(2R)-2-methylpyrrolidin-1-yl]ethyl}-1-benzofuran-5-yl)-5-phenyl-1,2,4-oxadiazole], for which affinity was put at a Ki of 16 nM.

The compound `C[C@@H]1CCCN1CCc1cc2cc(-c3noc(-c4ccc(F)cc4)n3)ccc2o1` [Example 95, 5-(4-fluorophenyl)-3-(2-{2-[(2R)-2-methylpyrrolidin-1-yl]ethyl}-1-benzofuran-5-yl)-1,2,4-oxadiazole] showed an inhibition constant Ki of 12 nM.

On to `C[C@@H]1CCCN1CCc1cc2cc(-c3noc(-c4ccc(F)c(Cl)c4)n3)ccc2o1` [Example 96, 5-(3-chloro-4-fluorophenyl)-3-(2-{2-[(2R)-2-methylpyrrolidin-1-yl]ethyl}-1-benzofuran-5-yl)-1,2,4-oxadiazole], for which affinity was put at a Ki of 223 nM.

Consider `C[C@@H]1CCCN1CCc1cc2cc(-c3noc(CCl)n3)ccc2o1` [Example 97, 5-(chloromethyl)-3-(2-{2-[(2R)-2-methylpyrrolidin-1-yl]ethyl}-1-benzofuran-5-yl)-1,2,4-oxadiazole], for which the Ki came to 1.4 nM.

`CCCc1nc(-c2ccc3oc(CCN4CCC[C@H]4C)cc3c2)no1` [Example 98, 3-(2-{2-[(2R)-2-methylpyrrolidin-1-yl]ethyl}-1-benzofuran-5-yl)-5-propyl-1,2,4-oxadiazole] displayed a Ki of 0.7 nM.

`CCc1nc(-c2ccc3oc(CCN4CCC[C@H]4C)cc3c2)no1` [Example 99, 5-ethyl-3-(2-{2-[(2R)-2-methylpyrrolidin-1-yl]ethyl}-1-benzofuran-5-yl)-1,2,4-oxadiazole] gave a Ki of 3.6 nM.

`Cc1nc(-c2ccc3oc(CCN4CCC[C@H]4C)cc3c2)no1` [Example 100, 5-methyl-3-(2-{2-[(2R)-2-methylpyrrolidin-1-yl]ethyl}-1-benzofuran-5-yl)-1,2,4-oxadiazole] displayed a Ki of 6 nM.

Compound `C[C@@H]1CCCN1CCc1oc2ccc(-c3ccc(C#N)cc3)cc2c1Br` [Example 101, 4-(3-bromo-2-{2-[(2R)-2-methylpyrrolidin-1-yl]ethyl}-1-benzofuran-5-yl)benzonitrile] yielded a Ki of 3.4 nM.

Compound `C[C@@H]1CCCN1CCc1oc2ccc(-c3ccc(C#N)cc3)cc2c1-c1ccco1` [Example 102, 4-(3-(2-furyl)-2-{2-[(2R)-2-methylpyrrolidin-1-yl]ethyl}-1-benzofuran-5-yl)benzonitrile] yielded a Ki of 18 nM.

As to `C[C@@H]1CCCN1CCc1oc2ccc(-c3ccc(C#N)cc3)cc2c1-c1cccnc1` [Example 103, 4-[2-{2-[(2R)-2-methyl-1-pyrrolidinyl]ethyl}-3-(3-pyridinyl)-1-benzofuran-5-yl]benzonitrile], the Ki came to 13 nM.

`C[C@@H]1CCCN1CCc1oc2ccc(-c3ccc(C#N)cc3)cc2c1-c1ccsc1` [Example 104, 4-[2-{2-[(2R)-2-methyl-1-pyrrolidinyl]ethyl}-3-(3-thienyl)-1-benzofuran-5-yl]benzonitrile] gave an inhibition constant (Ki) of 41 nM.

`C[C@@H]1CCCN1CCc1oc2ccc(-c3ccc(C#N)cc3)cc2c1-c1ccsc1C=O` [Example 105, 4-(3-(2-formyl-3-thienyl)-2-{2-[(2R)-2-methyl-1-pyrrolidinyl]ethyl}-1-benzofuran-5-yl)benzonitrile] returned an inhibitory constant (Ki) of 6 nM.

Regarding `Cc1cc(-c2ccc3oc(CCN4CCC[C@H]4C)cc3c2)ccc1C#N` [Example 106, 2-methyl-4-(2-{2-[(2R)-2-methyl-1-pyrrolidinyl]ethyl}-1-benzofuran-5-yl)benzonitrile], the affinity, expressed as Ki, was 2.3 nM.

Regarding `Cc1cc(C#N)ccc1-c1ccc2oc(CCN3CCC[C@H]3C)cc2c1` [Example 107, 3-methyl-4-(2-{2-[(2R)-2-methyl-1-pyrrolidinyl]ethyl}-1-benzofuran-5-yl)benzonitrile], the inhibition constant (Ki) turned out to be 8 nM.
